Test results as given in BigSolDB 2.1.

NC(=O)c1ccncc1
solubility (mole fraction)
Conditions	278.15 K	283.15 K	288.15 K	293.15 K	298.15 K	303.15 K	308.15 K	313.15 K	318.15 K	323.15 K
in DMAc	0.114	0.129	0.147	0.168	0.19	0.213	0.236	0.256	0.278	0.299
in DMF	0.13	0.135	0.147	0.157	0.17	0.181	0.193	0.208	0.221	0.24
in THF	0.0108	0.012	0.0143	0.0167	0.0194	0.0218	0.0247	0.0276	0.0308	0.0344
in acetone	0.00012	0.00014	0.00017	0.00021	0.00025	0.00029	0.00034	0.00039	0.00047	0.00057
in acetonitrile	0.00251	0.00313	0.00392	0.00473	0.00572	0.00695	0.00841	0.0102	0.0125	0.0152
in ethanol	0.0191	0.0221	0.0266	0.0307	0.0347	0.0407	0.0461	0.0548	0.0664	0.0796
in ethyl acetate	0.00272	0.00341	0.00414	0.00504	0.0062	0.00754	0.0105	0.0138	0.0172	0.0218
in isopropanol	0.0156	0.0182	0.0211	0.0253	0.0291	0.034	0.0381	0.0465	0.0559	0.0669
in isopropyl acetate	0.00204	0.00217	0.0025	0.00283	0.00328	0.00397	0.00505	0.00616	0.00734	0.00871
in methanol	0.0336	0.0392	0.0439	0.0515	0.0602	0.0678	0.0773	0.0911	0.103	0.122
in methyl acetate	0.00372	0.00431	0.00542	0.00668	0.00826	0.00969	0.0127	0.0152	0.0184	0.0218
in n-butanol	0.0172	0.0189	0.022	0.0248	0.0284	0.0319	0.0359	0.041	0.0482	0.0565
in n-pentanol	0.0126	0.0136	0.0152	0.0177	0.0204	0.0234	0.0279	0.033	0.039	0.046
in n-propanol	0.0218	0.0242	0.0275	0.0324	0.0374	0.0418	0.0455	0.0541	0.0639	0.0764
in n-propyl acetate	0.00198	0.00249	0.00323	0.00404	0.00494	0.00615	0.0072	0.00832	0.00937	0.0109
